Measurements reported in US11780826B2 (Amgen Inc., priority 2017, dated 2023).

Tested on: Bovine cardiac myofibrils
Assay: In vitro model of dose-dependent myofibril ATPase modulation (AC1.4, pyruvate kinase/lactate dehydrogenase-coupled ATPase assay at pCa25)
Type: biochemical
Conditions: concentration at which ATPase activity was 1.4-fold higher than the bottom of the dose curve, mean of a minimum of two independent tests
Protocol: In vitro Model of Dose-Dependent Myofibril ATPase Modulation: Dose responses were measured using a calcium-buffered, pyruvate kinase and lactate dehydrogenase-coupled ATPase assay containing the following reagents (concentrations expressed are final assay concentrations): Potassium PIPES (12 mM), MgCl2 (2 mM), ATP (1 mM), DTT (1 mM), BSA (0.1 mg/mi), NADH (0.5 mM), PEP (1.5 mM), pyruvate kinase (4 U/ml), lactate dehydrogenase (8 U/ml), and antifoam (90 ppm). The pH was adjusted to 6.80 at 22° C. by addition of potassium hydroxide.
Bovine cardiac myofibrils were obtained by homogenizing the appropriate tissue in the presence of detergent. Such treatment removes membranes and majority of soluble cytoplasmic proteins but leaves intact cardiac sarcomeric acto-myosin apparatus. Concentrations of myofibrils were adjusted to achieve the necessary rate of ATP hydrolysis (typically 0.25-1.0 mg/ml).
Assays were performed by first preparing a dilution series of test chemical entity, each with an assay mixture containing potassium Pipes, MgCl2, BSA, DTT, pyruvate kinase, lactate dehydrogenase, myofibrils, antifoam, EGTA, CaCl2, and water. The assay was started by adding an equal volume of solution containing potassium Pipes, MgCl2, BSA, DTT, ATP, NADH, PEP, antifoam, and water. ATP hydrolysis was monitored by absorbance at 340 nm. The resulting dose response curve was fit by the 4 parameter equation y=Bottom+((Top−Bottom)/(1+((EC50/X)^Hill))). […] AC1.4 values reported in the table below are mean values based on a minimum of two independent tests.

| AC1.4 [µM] | Molecule |
| --- | --- |
| 7.331 | 1-(((3S)-1-(((6R)-6-hydroxy-2-azaspiro[3.4]oct-2-yl)sulfonyl)-3-piperidinyl)carbonyl)-N-(4-(trifluoromethyl)benzyl)-D-prolinamide,1-(((3S)-1-(((6S)-6-hydroxy-2-azaspiro[3.4]oct-2-yl)sulfonyl)-3-piperidinyl)carbonyl)-N-(4-(trifluoromethyl)benzyl)-D-prolinamide [Example 750] |
| 2.157 | N#CC1CN(S(=O)(=O)c2cccc(C(=O)N3c4ccccc4CC3C(=O)NCc3ccc(C(F)(F)F)cc3)c2)C1 (racemic) [Example 481, (2R)-1-((3-((3-cyano-1-azetidinyl)sulfonyl)phenyl)carbonyl)-N-(4-(trifluoromethyl)benzyl)-2,3-dihydro-1H-indole-2-carboxamide and (2S)-1-((3-((3-cyano-1-azetidinyl)sulfonyl)phenyl)carbonyl)-N-(4-(trifluoromethyl)benzyl)-2,3-dihydro-1H-indole-2-carboxamide] |
| 2.928 | N#CC1CN(S(=O)(=O)N2CCC[C@H](C(=O)N3CCC[C@@H]3C(=O)N[C@@H](c3cc(F)c(Cl)cc3F)C3CNC3)C2)C1 (single isomer, unassigned) [Example 558] |
| 0.01405 | N#CC1CN(S(=O)(=O)c2cccc(C(=O)N3CCC[C@@H]3C(=O)N[C@H](CC3CC3)c3ccc(C(F)(F)F)cc3)c2)C1 [Example 1, 1-(3-((3-cyano-1-azetidinyl)sulfonyl)benzoyl)-N-((1R)-2-cyclopropyl-1-(4-(trifluoromethyl)phenyl)ethyl)-D-prolinamide] |
| 0.01475 | N#CC1CN(S(=O)(=O)N2CCC[C@H](C(=O)N3CCC[C@@H]3C(=O)N[C@@H](c3ccc(Cl)cc3F)C3CC3)C2)C1 [Example 2, N-((R)-(4-chloro-2-fluorophenyl)(cyclopropyl)methyl)-1-(((3S)-1-((3-cyano-1-azetidinyl)sulfonyl)-3-piperidinyl)carbonyl)-D-prolinamide] |
| 0.01635 | CC[C@@H](NC(=O)[C@H]1CCCN1C(=O)c1cccc(S(=O)(=O)N2CC(C#N)C2)c1)c1ccc(C(F)(F)F)cc1 [Example 3, 1-(3-((3-cyano-1-azetidinyl)sulfonyl)benzoyl)-N-((1R)-1-(4-(trifluoromethyl)phenyl)propyl)-D-prolinamide] |
| 0.01635 | CC[C@@H](NC(=O)[C@H]1CCCN1C(=O)[C@H]1CCCN(S(=O)(=O)N2CC(C#N)C2)C1)c1ccc(C(F)(F)F)cc1F [Example 4, 1-(((3S)-1-((3-cyano-1-azetidinyl)sulfonyl)-3-piperidinyl)carbonyl)-N-((1R)-1-(2-fluoro-4-(trifluoromethyl)phenyl)propyl)-D-prolinamide] |
| 0.01655 | N#CC1CN(S(=O)(=O)c2cccc(C(=O)N3C[C@H]4C[C@H]4[C@@H]3C(=O)NCc3ccc(C(F)(F)F)cc3)c2)C1 [Example 5] |
| 0.0171 | C[C@@H](NC(=O)[C@H]1CC(F)(F)CN1C(=O)c1cccc(S(=O)(=O)N2CC(C#N)C2)c1)c1ccc(C(F)(F)F)cc1 [Example 6, 1-((3-((3-cyano-1-azetidinyl)sulfonyl)phenyl)carbonyl)-4,4-difluoro-N-((1R)-1-(4-(trifluoromethyl)phenyl)ethyl)-D-prolinamide] |
| 0.01905 | N#CC1CN(S(=O)(=O)c2cccc(C(=O)N3CCC[C@@H]3C(=O)N[C@H](CC(F)(F)F)c3ccc(C(F)(F)F)cc3)c2)C1 [Example 7, 1-(3-((3-cyano-1-azetidinyl)sulfonyl)benzoyl)-N-((1R)-3,3,3-trifluoro-1-(4-(trifluoromethyl)phenyl)propyl)-D-prolinamide] |
| 0.0198 | N#CC1CN(S(=O)(=O)c2cccc(C(=O)N3CC(F)(F)C[C@@H]3C(=O)NCc3ccc(C(F)(F)F)cc3)c2)C1 [Example 8, 1-((3-((3-cyano-1-azetidinyl)sulfonyl)phenyl)carbonyl)-4,4-difluoro-N-(4-(trifluoromethyl)benzyl)-D-prolinamide] |
| 0.01995 | CC(C)[C@@H](NC(=O)[C@H]1CCCN1C(=O)[C@H]1CCCN(S(=O)(=O)N2CC(C#N)C2)C1)c1ccc(C(F)(F)F)cc1F [Example 9, 1-(((3S)-1-((3-cyano-1-azetidinyl)sulfonyl)-3-piperidinyl)carbonyl)-N-((1R)-1-(2-fluoro-4-(trifluoromethyl)phenyl)-2-methylpropyl)-D-prolinamide] |
| 0.02115 | CC(C)[C@@H](NC(=O)[C@H]1CCCN1C(=O)c1cccc(S(=O)(=O)N2CC(C#N)C2)c1)c1ccc(C(F)(F)F)cc1F [Example 10, 1-(3-((3-cyano-1-azetidinyl)sulfonyl)benzoyl)-N-((1R)-1-(2-fluoro-4-(trifluoromethyl)phenyl)-2-methylpropyl)-D-prolinamide] |
| 0.0215 | N#CC1CN(S(=O)(=O)N2CCC[C@H](C(=O)N3CCC[C@@H]3C(=O)N[C@@H](c3ccc(C(F)(F)F)cc3)C3CC3)C2)C1 [Example 11, 1-(((3S)-1-((3-cyano-1-azetidinyl)sulfonyl)-3-piperidinyl)carbonyl)-N-((R)-cyclopropyl(4-(trifluoromethyl)phenyl)methyl)-D-prolinamide] |
| 0.0216 | CC[C@@H](NC(=O)[C@H]1CCCN1C(=O)c1cccc(S(=O)(=O)N2CC(C#N)C2)c1)c1ccc(C(F)(F)F)cc1F [Example 12, 1-(3-((3-cyano-1-azetidinyl)sulfonyl)benzoyl)-N-((1R)-1-(2-fluoro-4-(trifluoromethyl)phenyl)propyl)-D-prolinamide] |
| 0.0227 | N#CC1CN(S(=O)(=O)N2CCC[C@H](C(=O)N3CCC[C@@H]3C(=O)N[C@H](CC3CC3)c3ccc(C(F)(F)F)cc3)C2)C1 [Example 14, 1-(((3S)-1-((3-cyano-1-azetidinyl)sulfonyl)-3-piperidinyl)carbonyl)-N-((1R)-2-cyclopropyl-1-(4-(trifluoromethyl)phenyl)ethyl)-D-prolinamide] |
| 0.02315 | N#CC1CN(S(=O)(=O)c2cccc(C(=O)N3CC4(CC4)C[C@@H]3C(=O)NCc3ccc(C(F)(F)F)cc3)c2)C1 [Example 15, (6R)-5-((3-((3-cyano-1-azetidinyl)sulfonyl)phenyl)carbonyl)-N-(4-(trifluoromethyl)benzyl)-5-azaspiro[2.4]heptane-6-carboxamide] |
| 0.0238 | C[C@@H](NC(=O)[C@H]1CCCN1C(=O)c1cc(F)cc(S(=O)(=O)N2CC(C#N)C2)c1)c1ccc(C(F)(F)F)cc1 [Example 16, 1-((3-((3-cyano-1-azetidinyl)sulfonyl)-5-fluorophenyl)carbonyl)-N-((1R)-1-(4-(trifluoromethyl)phenyl)ethyl)-D-prolinamide] |
| 0.02445 | CC[C@@H](NC(=O)[C@H]1CCCN1C(=O)[C@H]1CCCN(S(=O)(=O)N2CC(C#N)C2)C1)c1ccc(C(F)(F)F)cc1 [Example 17, 1-(((3S)-1-((3-cyano-1-azetidinyl)sulfonyl)-3-piperidinyl)carbonyl)-N-((1R)-1-(4-(trifluoromethyl)phenyl)propyl)-D-prolinamide] |
| 0.02495 | C[C@@H](NC(=O)[C@H]1COCCN1C(=O)c1cccc(S(=O)(=O)N2CC(C#N)C2)c1)c1ccc(C(F)(F)F)cc1 [Example 19, (R)-4-(3-((3-cyanoazetidin-1-yl)sulfonyl)benzoyl)-N—((R)-1-(4-(trifluoromethyl)phenyl)ethyl)morpholine-3-carboxamide] |
| 0.02545 | N#CC1CN(S(=O)(=O)N2CCC[C@H](C(=O)N3CCC[C@@H]3C(=O)NCc3cc(F)c(Cl)cc3F)C2)C1 [Example 20, N-(4-chloro-2,5-difluorobenzyl)-1-(((3S)-1-((3-cyano-1-azetidinyl)sulfonyl)-3-piperidinyl)carbonyl)-D-prolinamide] |
| 0.02715 | N#CC1CN(S(=O)(=O)c2cccc(C(=O)N3CCC[C@@H]3C(=O)NCc3ccc(Cl)c(Cl)c3)c2)C1 [Example 22, 1-((3-((3-cyano-1-azetidinyl)sulfonyl)phenyl)carbonyl)-N-(3,4-dichlorobenzyl)-D-prolinamide] |
| 0.0287 | CCNc1ccc(C)cc1C(=O)N1[C@@H](C(=O)N[C@@H](c2ccc(C(F)(F)F)cc2F)C2COC2)C[C@H]2C[C@H]21 [Example 23, (1R,3R,5R)-2-(2-(ethylamino)-5-methylbenzoyl)-N-((R)-(2-fluoro-4-(trifluoromethyl)phenyl)(3-oxetanyl)methyl)-2-azabicyclo[3.1.0]hexane-3-carboxamide] |
| 0.02875 | N#CC1CN(S(=O)(=O)c2cccc(C(=O)N3CCC[C@@H]3C(=O)N[C@H](CO)c3ccc(Cl)c(F)c3)c2)C1 [Example 24, N-((1S)-1-(4-chloro-3-fluorophenyl)-2-hydroxyethyl)-1-(3-((3-cyano-1-azetidinyl)sulfonyl)benzoyl)-D-prolinamide] |

| Molecule | AC1.4 [µM] |
| --- | --- |
| O=C(N[C@@H](c1cc(F)c(C(F)(F)F)cc1F)[C@H]1C[C@@H](O)C1)[C@H]1C[C@H]2C[C@H]2N1C(=O)c1ccnc(C(F)F)c1 (stereo in doubt) [Example 830, (1R,3R,5R)-N-((R)-(2,5-difluoro-4-(trifluoromethyl)phenyl)((1s,3S)-3-hydroxycyclobutyl)methyl)-2-(2-(difluoromethyl)isonicotinoyl)-2-azabicyclo[3.1.0]hexane-3-carboxamide] | 0.6694 |
